# PubChem BioAssay (NCI)
#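 Following 48 hours of exposure in 96-well plates, responses at five concentrations were used to interpolate endpoints linearly. GI50 = concentration required for 50% inhibition of growth. TGI: total growth inhibition.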
# What was measured:
# Assay in all cases: DTP human tumour cell line panel, 48 h
# 786-0 renal = system: 786-0 renal
# A498 renal = system: A498 renal
# A549 NSCLC = system: A549 NSCLC
# ACHN renal = system: ACHN renal
# BT-549 breast = system: BT-549 breast
# CAKI-1 renal = system: CAKI-1 renal
# COLO 205 colon = system: COLO 205 colon
# DU-145 prostate = system: DU-145 prostate
# EKVX NSCLC = system: EKVX NSCLC
# HCC-2998 colon = system: HCC-2998 colon
# HCT-116 colon = system: HCT-116 colon
# HCT-15 colon = system: HCT-15 colon
# HL-60(TB) leukemia = system: HL-60(TB) leukemia
# HOP-62 NSCLC = system: HOP-62 NSCLC
# HOP-92 NSCLC = system: HOP-92 NSCLC
# HS 578T breast = system: HS 578T breast
# HT29 colon = system: HT29 colon
# IGROV1 ovarian = system: IGROV1 ovarian
# K-562 leukemia = system: K-562 leukemia
# KM12 colon = system: KM12 colon
# LOX IMVI melanoma = system: LOX IMVI melanoma
# M14 melanoma = system: M14 melanoma
# MALME-3M melanoma = system: MALME-3M melanoma
# MCF7 breast = system: MCF7 breast
# MDA-MB-231 breast = system: MDA-MB-231 breast
# MDA-MB-435 = system: MDA-MB-435
# MOLT-4 leukemia = system: MOLT-4 leukemia
# NCI-H226 lung = system: NCI-H226 lung
# NCI-H23 lung = system: NCI-H23 lung
# NCI-H460 lung = system: NCI-H460 lung
# NCI-H522 lung = system: NCI-H522 lung
# NCI/ADR-RES ovarian = system: NCI/ADR-RES ovarian
# OVCAR-3 ovarian = system: OVCAR-3 ovarian
# OVCAR-4 ovarian = system: OVCAR-4 ovarian
# OVCAR-5 ovarian = system: OVCAR-5 ovarian
# OVCAR-8 ovarian = system: OVCAR-8 ovarian
# PC-3 prostate = system: PC-3 prostate
# RPMI-8226 leukemia = system: RPMI-8226 leukemia
# RXF 393 renal = system: RXF 393 renal
# SF-268 CNS = system: SF-268 CNS
# SF-295 CNS = system: SF-295 CNS
# SF-539 CNS = system: SF-539 CNS
# SK-MEL-2 melanoma = system: SK-MEL-2 melanoma
# SK-MEL-28 melanoma = system: SK-MEL-28 melanoma
# SK-MEL-5 melanoma = system: SK-MEL-5 melanoma
# SK-OV-3 ovarian = system: SK-OV-3 ovarian
# SN12C renal = system: SN12C renal
# SNB-19 CNS = system: SNB-19 CNS
# SNB-75 CNS = system: SNB-75 CNS
# SR leukemia = system: SR leukemia
# SW-620 colon = system: SW-620 colon
# T-47D breast = system: T-47D breast
# TK-10 renal = system: TK-10 renal
# U251 CNS = system: U251 CNS
# UACC-257 melanoma = system: UACC-257 melanoma
# UACC-62 melanoma = system: UACC-62 melanoma
# UO-31 renal = system: UO-31 renal
smiles,measurement,setting,value
COc1cc(/C=C/c2cc(/C=C/c3ccc(O)c(OC)c3)n(C(=O)Nc3ccc(C)cc3)n2)ccc1O,GI50,786-0 renal,0.412 µM
same,TGI,786-0 renal,1.81 µM
same,GI50,A498 renal,1.43 µM
same,TGI,A498 renal,4.87 µM
same,GI50,A549 NSCLC,0.419 µM
same,TGI,A549 NSCLC,4.6 µM
same,GI50,ACHN renal,0.396 µM
same,TGI,ACHN renal,7.42 µM
same,GI50,BT-549 breast,0.306 µM
same,TGI,BT-549 breast,2.34 µM
same,GI50,CAKI-1 renal,0.311 µM
same,TGI,CAKI-1 renal,6.95 µM
same,GI50,COLO 205 colon,1.91 µM
same,TGI,COLO 205 colon,3.51 µM
same,GI50,DU-145 prostate,0.448 µM
same,TGI,DU-145 prostate,2.32 µM
same,GI50,EKVX NSCLC,0.992 µM
same,TGI,EKVX NSCLC,5.02 µM
same,GI50,HCC-2998 colon,2.12 µM
same,TGI,HCC-2998 colon,9.46 µM
same,GI50,HCT-116 colon,0.296 µM
same,TGI,HCT-116 colon,1.53 µM
same,GI50,HCT-15 colon,0.384 µM
same,TGI,HCT-15 colon,5.27 µM
same,GI50,HL-60(TB) leukemia,0.261 µM
same,TGI,HL-60(TB) leukemia,0.657 µM
same,GI50,HOP-62 NSCLC,0.759 µM
same,TGI,HOP-62 NSCLC,2.5 µM
same,GI50,HOP-92 NSCLC,0.682 µM
same,TGI,HOP-92 NSCLC,4.18 µM
same,GI50,HS 578T breast,0.278 µM
same,TGI,HS 578T breast,0.689 µM
same,GI50,HT29 colon,1.93 µM
same,TGI,HT29 colon,5.19 µM
same,GI50,IGROV1 ovarian,0.667 µM
same,TGI,IGROV1 ovarian,3.94 µM
same,GI50,K-562 leukemia,0.359 µM
same,GI50,KM12 colon,0.345 µM
same,TGI,KM12 colon,3.18 µM
same,GI50,LOX IMVI melanoma,0.501 µM
same,TGI,LOX IMVI melanoma,2.62 µM
same,GI50,M14 melanoma,0.287 µM
same,TGI,M14 melanoma,1.05 µM
same,GI50,MALME-3M melanoma,0.924 µM
same,TGI,MALME-3M melanoma,3.57 µM
same,GI50,MCF7 breast,0.4 µM
same,TGI,MCF7 breast,2.97 µM
same,GI50,MDA-MB-231 breast,1.46 µM
same,TGI,MDA-MB-231 breast,23 µM
same,GI50,MDA-MB-435,0.115 µM
same,TGI,MDA-MB-435,0.391 µM
same,GI50,MOLT-4 leukemia,0.291 µM
same,TGI,MOLT-4 leukemia,1.06 µM
same,GI50,NCI-H226 lung,1.19 µM
same,TGI,NCI-H226 lung,4.82 µM
same,GI50,NCI-H23 lung,0.586 µM
same,TGI,NCI-H23 lung,3.99 µM
same,GI50,NCI-H460 lung,0.339 µM
same,TGI,NCI-H460 lung,1.86 µM
same,GI50,NCI-H522 lung,0.235 µM
same,TGI,NCI-H522 lung,0.909 µM
same,GI50,NCI/ADR-RES ovarian,0.429 µM
same,TGI,NCI/ADR-RES ovarian,> 100 µM
same,GI50,OVCAR-3 ovarian,0.417 µM
same,TGI,OVCAR-3 ovarian,1.99 µM
same,GI50,OVCAR-4 ovarian,0.697 µM
same,TGI,OVCAR-4 ovarian,5.95 µM
same,GI50,OVCAR-5 ovarian,1.89 µM
same,TGI,OVCAR-5 ovarian,5.89 µM
same,GI50,OVCAR-8 ovarian,0.465 µM
same,TGI,OVCAR-8 ovarian,2.59 µM
same,GI50,PC-3 prostate,0.404 µM
same,TGI,PC-3 prostate,2.53 µM
same,GI50,RPMI-8226 leukemia,0.261 µM
same,TGI,RPMI-8226 leukemia,1.34 µM
same,GI50,RXF 393 renal,0.381 µM
same,TGI,RXF 393 renal,1.41 µM
same,GI50,SF-268 CNS,0.628 µM
same,TGI,SF-268 CNS,7.44 µM
same,GI50,SF-295 CNS,1.71 µM
same,TGI,SF-295 CNS,6.34 µM
same,GI50,SF-539 CNS,0.442 µM
same,TGI,SF-539 CNS,2.47 µM
same,GI50,SK-MEL-2 melanoma,0.681 µM
same,TGI,SK-MEL-2 melanoma,3.97 µM
same,GI50,SK-MEL-28 melanoma,0.797 µM
same,TGI,SK-MEL-28 melanoma,6.87 µM
same,GI50,SK-MEL-5 melanoma,0.306 µM
same,TGI,SK-MEL-5 melanoma,1.21 µM
same,GI50,SK-OV-3 ovarian,0.451 µM
same,TGI,SK-OV-3 ovarian,1.79 µM
same,GI50,SN12C renal,0.408 µM
same,TGI,SN12C renal,> 29.9 µM
same,GI50,SNB-19 CNS,0.873 µM
same,TGI,SNB-19 CNS,9.11 µM
same,GI50,SNB-75 CNS,0.321 µM
same,TGI,SNB-75 CNS,1.36 µM
same,GI50,SR leukemia,0.0268 µM
same,TGI,SR leukemia,0.15 µM
same,GI50,SW-620 colon,0.465 µM
same,TGI,SW-620 colon,3.44 µM
same,GI50,T-47D breast,1.14 µM
same,TGI,T-47D breast,3.33 µM
same,GI50,TK-10 renal,0.874 µM
same,TGI,TK-10 renal,5.81 µM
same,GI50,U251 CNS,0.422 µM
same,TGI,U251 CNS,3.48 µM
same,GI50,UACC-257 melanoma,1.06 µM
same,TGI,UACC-257 melanoma,4.95 µM
same,GI50,UACC-62 melanoma,0.519 µM
same,TGI,UACC-62 melanoma,2.61 µM
same,GI50,UO-31 renal,0.272 µM
same,TGI,UO-31 renal,1.72 µM
